# Molecular target: T1, telomerase (HEK293T cell lysates) (Homo sapiens, UniProt O14746)
# T1 construct: effect of TBT oligonucleotide length in HEK293T cell lysates; endogenous in cells; host or cells: HEK293T cell lysate (CHAPS lysis)
# Test: TBT assay, effect of telomerase oligonucleotide template length
# Type: biochemical
# Details: TBT luminescence, short (0.5 repeat), 2.5 repeat and 3.5 repeat oligonucleotides compared
# Source text: FIG. 16 illustrates a graphical representation showing the effect of TBT oligonucleotide length in HEK293T cell lysates according to an embodiment of the present invention.
# Design of the telomerase-specific oligonucleotide template attached to the magnetic bead is critical for maximizing sensitivity of the TBT assay. The minimal recognition DNA sequence for base-pairing between the RNA component of telomerase and the telomere end is 9 bases—TAGGGTTAG, however, multiple repeats of this sequence more accurately depict the nature of chromosome telomere ends and the scanning nature of enzymes used to achieve accurate base-pair recognition. Telomerase templates include those ranging from 1.5-3 hexameric repeats.
# Three forms of the oligonucleotide were tested. A short version containing a partial (0.5) repeat, a slightly longer version containing 2.5 repeats, and a longer version with 3.5 repeats. […] This increased dynamic range is likely to translate into increased sensitivity of the assay.
# T1 sequence (O14746 whole entry): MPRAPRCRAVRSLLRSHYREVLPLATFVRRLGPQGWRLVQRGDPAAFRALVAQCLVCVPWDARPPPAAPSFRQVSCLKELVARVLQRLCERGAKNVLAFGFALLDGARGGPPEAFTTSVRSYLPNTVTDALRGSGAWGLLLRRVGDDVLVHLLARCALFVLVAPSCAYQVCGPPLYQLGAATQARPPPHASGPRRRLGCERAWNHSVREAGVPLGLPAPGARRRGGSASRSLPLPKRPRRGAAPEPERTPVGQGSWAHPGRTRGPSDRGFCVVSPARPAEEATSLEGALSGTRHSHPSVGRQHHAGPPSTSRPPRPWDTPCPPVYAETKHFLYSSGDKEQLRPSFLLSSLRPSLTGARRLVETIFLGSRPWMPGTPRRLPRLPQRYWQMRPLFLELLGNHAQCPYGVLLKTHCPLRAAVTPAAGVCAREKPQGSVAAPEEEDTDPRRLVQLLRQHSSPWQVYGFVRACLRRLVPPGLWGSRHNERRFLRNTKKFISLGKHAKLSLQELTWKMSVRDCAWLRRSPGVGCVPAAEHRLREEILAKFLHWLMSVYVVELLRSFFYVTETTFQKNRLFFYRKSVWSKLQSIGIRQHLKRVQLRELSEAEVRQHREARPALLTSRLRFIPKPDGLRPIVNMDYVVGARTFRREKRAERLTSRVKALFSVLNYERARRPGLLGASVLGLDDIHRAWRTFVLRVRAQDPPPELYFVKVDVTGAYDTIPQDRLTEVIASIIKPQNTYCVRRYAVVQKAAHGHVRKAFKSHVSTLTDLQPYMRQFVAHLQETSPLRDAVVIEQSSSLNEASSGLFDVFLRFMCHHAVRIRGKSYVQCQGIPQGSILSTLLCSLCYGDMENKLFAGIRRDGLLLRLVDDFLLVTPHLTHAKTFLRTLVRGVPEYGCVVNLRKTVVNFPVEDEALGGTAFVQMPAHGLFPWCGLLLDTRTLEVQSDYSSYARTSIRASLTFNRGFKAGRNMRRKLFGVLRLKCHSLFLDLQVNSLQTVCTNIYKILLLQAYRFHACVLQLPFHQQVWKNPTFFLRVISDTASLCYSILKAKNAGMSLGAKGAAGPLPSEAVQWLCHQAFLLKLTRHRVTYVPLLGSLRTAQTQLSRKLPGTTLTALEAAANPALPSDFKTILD
substance,measurement,value
"longer version: Long human telomerase recognition nucleotide sequence, 5′ thiol-linked, 3.5 repeats, attached to magnetic bead (DNA TTTTTTAATCCGTCGAGCAGAGTTAGGGTTAGGGTTAGGGTTAGGGTTAG; 5' thiol linker, attached to magnetic bead, further chemistry not given here)",absolute signal relative to the background signal (no telomerase extract),better absolute signal relative to the background signal
